In paper PMC6173696, “Structural properties of a haemophore facilitate targeted elimination of the pathogen Porphyromonas gingivalis” (Nature Communications, 2018):

Assays:
Assay type in all cases: binding
HusA L123N-V124N = molecular target: T1, HusA L123N-V124N (Porphyromonas gingivalis, UniProt Q7MSY3, L123N/V124N); assay: Tryptophan fluorescence quenching assay, HusA mutant L123N-V124N; settings: haemin, mutant L123N-V124N
T1 sequence (Q7MSY3 24-218 L123N/V124N): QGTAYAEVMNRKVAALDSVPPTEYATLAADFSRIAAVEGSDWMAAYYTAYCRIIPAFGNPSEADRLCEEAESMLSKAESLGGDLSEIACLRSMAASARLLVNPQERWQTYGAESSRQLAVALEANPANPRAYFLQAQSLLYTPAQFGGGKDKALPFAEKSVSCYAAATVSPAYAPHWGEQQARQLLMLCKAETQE
Method: (§1) The quenching of intrinsic tryptophan fluorescence of HusA upon porphyrin additions was measured using a Carey Eclipse Fluorescence Spectrophotometer (Agilent) set to a photo multiplier effect (PME) of 850. A 5-mm path length quartz cuvette was used and all spectra were acquired at room temperature. Excitation was set to 295 nm and emission was measured from 300 nm to 500 nm using excitation/emission slit widths of 5 nm. Binding assays were performed at a protein concentration of 1 μM HusA in standard buffer at a working volume of 0.5 mL. […] The fluorescence quenching of HusA by PPIX was investigated in a similar manner with the following difference: the fluorescence intensities of ten 1 μM HusA samples were measured each with increasing amounts of PPIX after a 2-h incubation period to allow equilibrium to be reached. See Supplementary Methods for correction for inner filter effect and curve fitting. […]
(§2) Correction of inner filter effect and curve fitting in tryptophan fluorescence quenching assays The concentration of NATA was chosen such that the raw fluorescence intensity was similar to the 10 uM concentrations of HusA and mutants used. […] Fluorescence intensity was scaled with respect to the starting florescence and corrected for the inner filter effect. Fluorescence at 335 nm was used to fit binding curves. […]

HusA R139A = molecular target: T2, HusA R139A (Porphyromonas gingivalis, UniProt Q7MSY3, R139A); assay: Tryptophan fluorescence quenching assay, HusA mutant R139A; settings: haemin
T2 sequence (Q7MSY3 24-218 R139A): T1 sequence (Q7MSY3 24-218 L123N/V124N)

HusA Y164A = molecular target: T3, HusA Y164A (Porphyromonas gingivalis, UniProt Q7MSY3, Y164A); assay: Tryptophan fluorescence quenching assay, HusA mutant Y164A; settings: haemin
T3 sequence (Q7MSY3 24-218 Y164A): T1 sequence (Q7MSY3 24-218 L123N/V124N)
Method: as §1, §2

HusA W130N = molecular target: T4, HusA W130N (Porphyromonas gingivalis, UniProt Q7MSY3, W130N); assay: Tryptophan fluorescence quenching assay, HusA mutant W130N; settings: haemin
T4 sequence (Q7MSY3 24-218 W130N): T1 sequence (Q7MSY3 24-218 L123N/V124N)

HusA R121A = molecular target: T5, HusA R121A (Porphyromonas gingivalis, UniProt Q7MSY3, R121A); assay: Tryptophan fluorescence quenching assay, HusA mutant R121A; settings: haemin
T5 sequence (Q7MSY3 24-218 R121A): T1 sequence (Q7MSY3 24-218 L123N/V124N)

HusA L107A = molecular target: T6, HusA L107A (Porphyromonas gingivalis, UniProt Q7MSY3, L107A); assay: Tryptophan fluorescence quenching assay, HusA mutant L107A; settings: haemin
T6 sequence (Q7MSY3 24-218 L107A): T1 sequence (Q7MSY3 24-218 L123N/V124N)

HusA Y133A = molecular target: T7, HusA Y133A (Porphyromonas gingivalis, UniProt Q7MSY3, Y133A); assay: Tryptophan fluorescence quenching assay, HusA mutant Y133A; settings: haemin
T7 sequence (Q7MSY3 24-218 Y133A): T1 sequence (Q7MSY3 24-218 L123N/V124N)

C=CC1=C(C)c2cc3[nH]c(cc4nc(cc5[nH]c(cc1n2)c(C)c5CCC(=O)O)C(CCC(=O)O)=C4C)c(C)c3C=C.[Fe+3] [haemin]
Kd (HusA L123N-V124N): 10.3 ± 0.7 µM
Kd (HusA R139A): 6.3 ± 1.4 µM
Kd (HusA Y164A): 13 ± 0.7 µM
Kd (HusA W130N): 16 ± 1.8 µM
Kd (HusA R121A): 6.7 ± 1.2 µM
Kd (HusA L107A): 5.5 ± 0.3 µM
Kd (HusA Y133A): 7.4 ± 0.6 µM
